# Target: Prothrombin (Homo sapiens, UniProt P00734)
# Assay: Inhibitory activity against human thrombin
row,Compound,IC50 [µM]
1,N=C(N)c1ccc(CNC(=O)CC2OCCN(Nc3ccc(-c4ccccc4)cc3)C2=O)cc1 (stereo not given),4.88
2,N=C(N)c1ccc(CNC(=O)CC2OCCN(N(Cc3ccccc3)Cc3ccccc3)C2=O)cc1 (stereo not given),19.8
3,N=C(N)c1ccc(CNC(=O)CC2OCCN(Nc3cccc(N)c3)C2=O)cc1 (stereo not given),> 32
4,N=C(N)c1ccc(CNC(=O)C[C@H]2OCCN(NC(=O)c3ccc(N)cc3)C2=O)cc1,150
5,CC(C)OC(=O)NN1CCO[C@H](CC(=O)NCc2ccc(C(=N)N)cc2)C1=O,80.6
6,N=C(N)c1ccc(CNC(=O)C[C@H]2OCCN(NCCCc3ccccc3)C2=O)cc1,45.4
7,N=C(N)c1ccc(CNC(=O)C[C@H]2OCCN(N(CCCc3ccccc3)CCCc3ccccc3)C2=O)cc1,36.2
8,CC(C)(C)OC(=O)NN1CCO[C@H](CC(=O)NCc2ccc(C(=N)N)cc2)C1=O,54.7
9,N=C(N)c1ccc(CNC(=O)C[C@H]2OCCN(NCc3ccccc3)C2=O)cc1,13.6
10,N=C(N)c1ccc(CNC(=O)C[C@H]2OCCN(NCC(=O)c3ccccc3)C2=O)cc1,> 133
11,N=C(N)c1ccc(CNC(=O)C[C@H]2OCCN(NC(=O)c3ccccc3)C2=O)cc1,106
12,N=C(N)c1ccc(CNC(=O)C[C@H]2OCCN(NCCc3ccccc3)C2=O)cc1,35.6
13,N=C(N)c1ccc(CNC(=O)C[C@@H]2OCCN(NCCCc3ccccc3)C2=O)cc1,4.74
14,N=C(N)c1ccc(CNC(=O)C[C@@H]2OCCN(NCc3ccccc3)C2=O)cc1,10.6
15,N=C(N)c1ccc(CNC(=O)C[C@@H]2OCCN(NCCc3ccccc3)C2=O)cc1,1.79
16,N=C(N)c1ccc(CNC(=O)CC2OCCN(Nc3ccccc3)C2=O)cc1 (stereo not given),34.4

# Results, then the compound that gave them:
row,IC50 [µM],Compound
1,8.14,N=C(N)c1ccc(CNC(=O)CC2OCCN(NS(=O)(=O)c3ccc(F)cc3F)C2=O)cc1 (stereo not given)
2,0.13,COc1ccc(OC)c(S(=O)(=O)NN2CCOC(CC(=O)NCc3ccc(C(=N)N)cc3)C2=O)c1 (stereo not given)
3,0.961,Cc1ccc(CCNN2CCOC(CC(=O)NCc3ccc(C(=N)N)cc3)C2=O)cc1 (stereo not given)
4,36.8,N=C(N)c1ccc(CNC(=O)C[C@H]2OCCN(NS(=O)(=O)Cc3ccccc3)C2=O)cc1
5,9.15,N=C(N)c1ccc(CNC(=O)C[C@@H]2OCCN(NS(=O)(=O)Cc3ccccc3)C2=O)cc1
6,37.7,N=C(N)c1ccc(CNC(=O)C[C@H]2OCCN(NS(=O)(=O)c3ccccc3)C2=O)cc1
7,0.247,Cc1ccc(C)c(S(=O)(=O)NN2CCOC(CC(=O)NCc3ccc(C(=N)N)cc3)C2=O)c1 (stereo not given)
8,0.164,Cc1cc(S(=O)(=O)NN2CCOC(CC(=O)NCc3ccc(C(=N)N)cc3)C2=O)c(C)cc1Cl (stereo not given)
9,0.486,N=C(N)c1ccc(CNC(=O)CC2OCCN(NS(=O)(=O)c3ccc4c(c3)CCO4)C2=O)cc1 (stereo not given)

# — ChEMBL document CHEMBL1144900, “Synthesis and SAR of thrombin inhibitors incorporating a novel 4-amino-morpholinone sscaffold: analysis of X-ray crystal structure of enzyme inhibitor complex” (J Med Chem, 2003)
